Source: PMC6154694, “Absorption, Metabolic Stability, and Pharmacokinetics of Ginger Phytochemicals” (Molecules : A Journal of Synthetic Chemistry and Natural …, 2017)

Assays:
[1] = Liver microsomal stability, human; type: in vitro ADME; conditions: protein 0.5 mg/mL
Procedure: Pooled liver microsomes from CD1 mouse, IGS Sprague-Dawley rat, Beagle dog, and mixed gender human were used for assays. Incubations (1 mL) consisted of liver microsomes (0.5 mg/mL), NADPH (1 mM) and 100 mM sodium phosphate buffer (pH 7.4). Following pre-incubation (10 min, 37 °C), reactions were initiated by spiking ACN/DMSO (80:20) stock solutions of GE phenolics (5 μL, 10 μM). Samples (100 μL) were withdrawn at 0, 5, 10, 15, 20 and 30 min and quenched with 200 μL acetonitrile containing internal standard. Concomitant NADPH-free control incubations were prepared similarly.

[2] = Mouse pharmacokinetic study of oral GE with and without ketoconazole, plasma with and without β-glucuronidase treatment; type: in vivo, male mice (C57BL6J); conditions: for Concentration Ratio (Total/Free) of GE Phenolics: GE administered group; for Concentration Ratio (Total/Free) of GE Phenolics / concentration at 0 h / concentration at 0.087 h / concentration at 0.167 h / concentration at 0.25 h / concentration at 0.5 h / concentration at 1 h / concentration at 2 h / concentration at 3 h / concentration at 4 h / concentration at 6 h / concentration at 8 h / concentration at 12 h: mouse plasma; for AUC(0-t) / Cmax / Tmax / concentration at 0 h / concentration at 0.087 h / concentration at 0.167 h / concentration at 0.25 h / concentration at 0.5 h / concentration at 1 h / concentration at 2 h / concentration at 3 h / concentration at 4 h / concentration at 6 h / concentration at 8 h / concentration at 12 h: male, C57BL6J; for AUC(0-t) / Cmax / Tmax: mouse, plasma, po, 250 mg/kg
Procedure: A solution formulation of GE was prepared by using 5% ethanol, 5% Tween 80, 40% polyethylene glycol, and 50% corn oil. The dose volume was 10 mL/kg and the dose administered was 250 mg/kg GE.
Pharmacokinetic study in male mice (C57BL6J, Harlan Laboratories, Indianapolis, IN, USA) was run with 36 animals in each group at a GE dose of 250 mg/kg with a dose volume of 10 mL/kg. One group was given GE alone and in the second group GE was co-administered with KTZ (50 mg/kg). A terminal sampling design was used to collect blood samples at 0 (pre-dose), 0.08, 0.16, 0.25, 0.5, 1, 2, 3, 4, 6, 8, and 12 h. At each time, 1 mL of blood was collected in ethylenediaminetetraacetic acid di-potassium salt (K2EDTA) tubes (BD Biosciences, Franklin Lakes, NJ, USA). Plasma was separated by centrifugation of samples at 4000 rpm for 10 min and stored below −60 °C till bioanalysis. All experiments were performed with approval from the Institutional Animal Care and Use Committee (IACUC, approval code: A14031). All animals were acclimatized for five days before dosing in the experimental area. Food and water was provided ad libitum throughout the study period. Animals were marked and housed (three per cage, n = 36 per group) in polypropylene cages and maintained in controlled environmental conditions with 12 h light and dark cycles. The temperature and humidity of the room was maintained between 22 ± 3 °C and 30% to 50%, respectively, and approximately 10–12 fresh air change cycles per hour.
To confirm the presence of GE glucuronide conjugates, plasma (100 μL) was treated with βgd (20 μL, 500 units) and incubated at 37 °C for 1 h. Each sample was analyzed twice with and without β-gd treatment. Samples without gde treatment were diluted with 20 μL of buffer. Total (conjugated + free) and free ginger phenolics data were reported following bioanalysis.
All in vitro and in vivo samples were processed by protein precipitation method. An aliquot (100 μL) of the sample was spiked with 200 μL of acetonitrile containing dihydrocapsaicin as internal standard (IS) and vortex mixed for 3 min. The tubes were centrifuged at 12,000 rpm for 10 min and an aliquot of supernatant was transferred into autosampler vials for analysis. The stock solutions of 6G, 8G, 10G, and 6S were prepared in ACN/water (70:30) at 1 mg/mL. A calibration curve (CC) range of 2–2000 ng/mL was employed for the quantification of analytes and IS concentration was 150 ng/mL for each analysis. The CC consisted of blank, blank with IS and seven non-zero calibration standards. The calibration standards were within ±15% of the nominal concentration and lower limit of quantification was within ±20% of nominal. All samples were analyzed using liquid chromatography tandem mass spectrometry (LC-MS/MS) method (Agilent 6410 series, Santa Clara, CA, USA). A positive ionization mode with multiple reaction monitoring (MRM, m/z Q1/Q3) of 6G (m/z 277.1/177.1, retention time (RT) 2.0 min), 8G (m/z 305.1/177.1, RT 4.0 min), 10G (m/z 333.1/177.1, RT 7.7 min), 6S (m/z 277.1/137.1, RT 5.1 min), and IS (m/z 308.2/137.1, RT 3.4 min) was employed. The ion spray voltage was set at 3500 V, ionization temperature was set to 300 °C and drying gas flow rate was 10 L/min. Data acquisition and quantitation were performed using Mass Hunter software (Agilent Technologies, Wilmington, DE, USA). Separation was achieved using HP1100 series LC (Agilent Technologies) with an Agilent Zorbax reversed-phase (SB-C18, 2.1 × 50 mm, 5.0 μm) column. A gradient method was employed to separate the individual GE phenolics using mobile phase A (0.1% formic acid in water) and mobile phase B (Acetonitrile). The gradient elution method with 50% B at 0 min, 90% B at 5 min, held for 2.1 min, back to 50% B at 7.1 min with a flow rate of 0.2 mL/min. An injection volume of 2 μL was used for analysis. […]

[3] = 250 mg/kg GE + 50 mg/kg KTZ oral, +KTZ −βgd

SMILES: CCCCC/C=C/C(=O)CCc1ccc(O)c(OC)c1 [6S, 6-shogaol]
- remaining at 0.5 h, 10 µM ([1]; both sexes, pooled liver microsomes, pH 7.4, substrate 10 µM, n = 2, read-out: % Remaining at 30 min): 1%
- Intrinsic Clearance ([1]; human liver microsomes, substrate 10 µM, 45 mg protein/g liver): 8.4 mL/min/g Liver
- AUClast Ratio ([2]; +KTZ +βgd, reference GE group co-administered with KTZ untreated with βgd): 14
- AUClast Ratio ([2]; +KTZ +βgd, reference GE group untreated with βgd): 110
- AUClast Ratio ([2]; +KTZ −βgd, reference GE group untreated with βgd): 8
- Concentration Ratio (Total/Free) of GE Phenolics ([2]; 0 h): 0
- Concentration Ratio (Total/Free) of GE Phenolics ([2]; 0.087 h): 48
- Concentration Ratio (Total/Free) of GE Phenolics ([2]; 0.167 h): 19
- Concentration Ratio (Total/Free) of GE Phenolics ([2]; 0.25 h): 0
- Concentration Ratio (Total/Free) of GE Phenolics ([2]; 0.5 h): 83
- Concentration Ratio (Total/Free) of GE Phenolics ([2]; 1 h): 1
- Concentration Ratio (Total/Free) of GE Phenolics ([2]; 2 h): 16
- Concentration Ratio (Total/Free) of GE Phenolics ([2]; 3 h): 0
- Concentration Ratio (Total/Free) of GE Phenolics ([2]; 4 h): 0
- Concentration Ratio (Total/Free) of GE Phenolics ([2]; 6 h): 0
- Concentration Ratio (Total/Free) of GE Phenolics ([2]; 8 h): 0
- Concentration Ratio (Total/Free) of GE Phenolics ([2]; 12 h): 0
- AUC(0-t) ([2]; 250 mg/kg GE oral, −βgd): 1.92 ng·h/mL
- Cmax ([2]; 250 mg/kg GE oral, −βgd): 3.88 ng/mL
- Tmax ([2]; 250 mg/kg GE oral, −βgd): 10 min
- AUC(0-t) [2, 3]: 15.1 ng·h/mL
- Cmax [2, 3]: 12.4 ng/mL
- Tmax [2, 3]: 60 min
- concentration at 0 h ([2]; 250 mg/kg GE oral, 0 h, −βgd): 0 ng/mL
- concentration at 0.087 h ([2]; 250 mg/kg GE oral, 0.087 h, −βgd): 3.17 ± 2.56 ng/mL
- concentration at 0.167 h ([2]; 250 mg/kg GE oral, 0.167 h, −βgd): 4.04 ± 5.37 ng/mL
- concentration at 0.25 h ([2]; 250 mg/kg GE oral, 0.25 h, −βgd): 0.39 ± 0.55 ng/mL
- concentration at 0.5 h ([2]; 250 mg/kg GE oral, 0.5 h, −βgd): 1.26 ± 1.78 ng/mL
- concentration at 1 h ([2]; 250 mg/kg GE oral, 1 h, −βgd): 0.67 ± 0.95 ng/mL
- concentration at 2 h ([2]; 250 mg/kg GE oral, 2 h, −βgd): 0.38 ± 0.54 ng/mL
- concentration at 3 h ([2]; 250 mg/kg GE oral, 3 h, −βgd): 0 ng/mL
- concentration at 4 h ([2]; 250 mg/kg GE oral, 4 h, −βgd): 0 ng/mL
- concentration at 6 h ([2]; 250 mg/kg GE oral, 6 h, −βgd): 0 ng/mL
- concentration at 8 h ([2]; 250 mg/kg GE oral, 8 h, −βgd): 0.05 ± 0.08 ng/mL
- concentration at 12 h ([2]; 250 mg/kg GE oral, 12 h, −βgd): 0.37 ± 0.23 ng/mL
- concentration at 0 h ([2]; 250 mg/kg GE with 50 mg/kg ketoconazole oral, 0 h, −βgd): 0 ng/mL
- concentration at 0.087 h ([2]; 250 mg/kg GE with 50 mg/kg ketoconazole oral, 0.087 h, −βgd): 0.05 ± 0.07 ng/mL
- concentration at 0.167 h ([2]; 250 mg/kg GE with 50 mg/kg ketoconazole oral, 0.167 h, −βgd): 0.94 ± 1.33 ng/mL
- concentration at 0.25 h ([2]; 250 mg/kg GE with 50 mg/kg ketoconazole oral, 0.25 h, −βgd): 0 ng/mL
- concentration at 0.5 h ([2]; 250 mg/kg GE with 50 mg/kg ketoconazole oral, 0.5 h, −βgd): 18600 ng/mL
- concentration at 1 h ([2]; 250 mg/kg GE with 50 mg/kg ketoconazole oral, 1 h, −βgd): 12.5 ± 17.6 ng/mL
- concentration at 2 h ([2]; 250 mg/kg GE with 50 mg/kg ketoconazole oral, 2 h, −βgd): 75900 ng/mL
- concentration at 3 h ([2]; 250 mg/kg GE with 50 mg/kg ketoconazole oral, 3 h, −βgd): 2.33 ± 3.3 ng/mL
- concentration at 4 h ([2]; 250 mg/kg GE with 50 mg/kg ketoconazole oral, 4 h, −βgd): 0 ng/mL
- concentration at 6 h ([2]; 250 mg/kg GE with 50 mg/kg ketoconazole oral, 6 h, −βgd): 0 ng/mL
- concentration at 8 h ([2]; 250 mg/kg GE with 50 mg/kg ketoconazole oral, 8 h, −βgd): 0 ng/mL
- concentration at 12 h ([2]; 250 mg/kg GE with 50 mg/kg ketoconazole oral, 12 h, −βgd): 0 ng/mL
